From the supplement of paper PMC10307832

Columns and labels:
Assay in all cases: relative viability (nuclei count vs DMSO), 5 days (fraction); higher = more cells survive
[1] = compound: C1COCCN1C2=NC(=NC3=C2OC4=C3C=CC=N4)C5=CC(=CC=C5)NC(=O)C6=CN=C(C=C6)N + Nc1nc2[nH]cc(CCc3ccc(C(=O)N[C@@H](CCC(=O)O)C(=O)O)cc3)c2c(=O)[nH]1 [Pemetrexed] (partner 0.2 µM)
In short: (§1)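 Lung cancer cell lines, seeded in 1536-well plates, were treated the following day by pin tool with a single drug or with five library-drug doses (not always all listed) in √10 steps on top of a fixed anchor-drug dose. Cells were fixed and nuclei stained in one step after 5 days, and nuclei were counted. Relative viability is the nuclei count for treated wells divided by that for vehicle wells, reported as medians of duplicate plates.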

[2] = compound: CN1CCC(CNc2ccc3ncc(-c4cccc(OC(F)(F)F)c4)n3n2)CC1 [SGI-1776] + CC(C)C[C@H](NC(=O)[C@H](Cc1ccccc1)NC(=O)c1cnccn1)B(O)O [Bortezomib] (partner 0.002 µM)
In short: as §1

[3] = compound: CN1CCC(CNc2ccc3ncc(-c4cccc(OC(F)(F)F)c4)n3n2)CC1 [SGI-1776] + CCNC(=O)c1noc(-c2cc(C(C)C)c(O)cc2O)c1-c1ccc(CN2CCOCC2)cc1 [Luminespib] (partner 0.01 µM)
In short: as §1

[4] = compound: Nc1ccccc1NC(=O)c1ccc(CNC(=O)OCc2cccnc2)cc1 [Entinostat] + CCNC(=O)c1noc(-c2cc(C(C)C)c(O)cc2O)c1-c1ccc(CN2CCOCC2)cc1 [Luminespib] (partner 0.01 µM)
In short: as §1

Cell Line	relative viability ([1]; first compound 0.02 µM)	relative viability ([1]; first compound 0.06325 µM)	relative viability ([1]; first compound 0.2 µM)	relative viability ([1]; first compound 0.6325 µM)	relative viability ([1]; first compound 2 µM)	relative viability ([2]; first compound 0.08 µM)	relative viability ([2]; first compound 0.8 µM)	relative viability ([2]; first compound 2.53 µM)	relative viability ([2]; first compound 8 µM)	relative viability ([3]; first compound 0.08 µM)	relative viability ([3]; first compound 0.8 µM)	relative viability ([3]; first compound 2.53 µM)	relative viability ([3]; first compound 8 µM)	relative viability ([4]; first compound 0.02 µM)	relative viability ([4]; first compound 0.06325 µM)	relative viability ([4]; first compound 0.2 µM)	relative viability ([4]; first compound 0.6325 µM)	relative viability ([4]; first compound 2 µM)
LCLC-97TM1	0.199	0.195	0.181	0.203	0.2	0.775	0.557	0.549	0.567	0.947	0.847	0.746	0.742	0.939	0.798	0.695	0.808	0.491
LCLC-103H	0.466	0.435	0.444	0.465	0.419	1.06	1.05	1.01	0.859	0.965	0.88	0.948	0.729	0.979	0.967	0.909	0.715	0.288
LOU-NH91	0.353	0.363	0.349	0.337	0.456	0.482	0.565	0.489	0.458	0.366	0.345	0.367	0.305	0.341	0.333	0.371	0.394	0.337
LU99A	0.204	0.183	0.223	0.184	0.178	1.3	1.15	1.53	1.03	0.245	0.247	0.253	0.254	0.286	0.255	0.322	0.211	0.281
LXF-289	0.945	1	0.873	0.923	0.647	1.03	1.04	1.02	0.973	0.688	0.654	0.665	0.598	0.754	0.675	0.739	0.494	0.354
NCI-H23	0.836	0.721	0.529	0.493	0.344	0.997	1.09	1.07	0.991	0.217	0.221	0.238	0.192	0.187	0.21	0.229	0.199	0.18
NCI-H322M	0.685	0.588	0.565	0.628	0.621	1.3	1.26	1.21	1.07	0.999	0.901	0.881	0.635	0.909	1.13	1.06	1.1	1.03
NCI-H441	0.278	0.251	0.248	0.245	0.251	0.376	0.443	0.529	0.332	0.379	0.294	0.312	0.239	0.401	0.34	0.29	0.245	0.176
NCI-H460	0.0585	0.0645	0.0766	0.0835	0.0565	1.18	1.2	1.11	0.82	0.0293	0.0297	0.0268	0.019	0.0255	0.0353	0.0291	0.0258	0.0328
NCI-H520	0.653	0.752	0.655	0.685	0.351	0.859	0.776	0.716	0.22	0.209	0.218	0.244	0.281	0.192	0.225	0.227	0.281	0.228
NCI-H596	0.569	0.488	0.523	0.467	0.393	0.924	1.08	0.95	0.973	0.975	0.934	0.798	0.941	0.836	0.935	0.992	0.905	0.597
NCI-H647	0.175	0.155	0.141	0.138	0.114	1.24	0.964	0.888	0.837	0.263	0.198	0.192	0.144	0.223	0.182	0.23	0.177	0.133
NCI-H650	0.95	0.918	0.945	0.835	0.782	0.95	0.755	0.836	0.622	0.863	0.734	0.9	0.858	0.824	0.76	0.829	0.672	0.427
NCI-H661	0.923	0.918	0.889	0.921	0.602	0.963	0.858	0.833	0.649	0.996	0.977	1	0.913	0.838	0.868	0.834	0.642	0.493
NCI-H838	0.257	0.246	0.25	0.242	0.167	0.848	0.973	0.764	0.353	0.231	0.331	0.349	0.254	0.291	0.257	0.291	0.196	0.201
NCI-H1355	1.04	1.05	1.01	0.944	0.924	1.2	1.24	1.24	1.03	0.68	0.625	0.607	0.551	0.724	0.611	0.616	0.504	0.418
NCI-H1437	0.339	0.311	0.308	0.366	0.254	0.587	0.525	0.536	0.352	1.12	1.19	1.22	1.12	0.829	0.853	0.552	0.301	0.257
NCI-H1563	0.795	0.699	0.767	0.694	0.685	0.934	0.849	0.847	0.692	0.522	0.497	0.515	0.538	0.515	0.503	0.478	0.483	0.47

Cell Line	relative viability ([1]; first compound 0.02 µM)	relative viability ([1]; first compound 0.06325 µM)	relative viability ([1]; first compound 0.2 µM)	relative viability ([1]; first compound 0.6325 µM)	relative viability ([1]; first compound 2 µM)	relative viability ([2]; first compound 0.08 µM)	relative viability ([2]; first compound 0.8 µM)	relative viability ([2]; first compound 2.53 µM)	relative viability ([2]; first compound 8 µM)	relative viability ([3]; first compound 0.08 µM)	relative viability ([3]; first compound 0.8 µM)	relative viability ([3]; first compound 2.53 µM)	relative viability ([3]; first compound 8 µM)	relative viability ([4]; first compound 0.02 µM)	relative viability ([4]; first compound 0.06325 µM)	relative viability ([4]; first compound 0.2 µM)	relative viability ([4]; first compound 0.6325 µM)	relative viability ([4]; first compound 2 µM)
NCI-H1650	0.391	0.384	0.377	0.376	0.3	0.217	0.18	0.207	0.181	0.211	0.198	0.195	0.172	0.214	0.198	0.185	0.212	0.195
NCI-H1651	0.615	0.581	0.572	0.599	0.31	0.976	0.923	0.874	0.889	0.823	0.977	0.784	0.642	0.795	1.01	0.742	0.724	0.64
NCI-H1666	0.861	0.812	0.699	0.749	0.546	0.81	0.826	0.918	0.56	1.03	0.995	0.972	0.877	1.05	1.19	1.04	0.701	0.445
NCI-H1734	0.393	0.427	0.36	0.351	0.33	0.903	1.11	0.88	0.739	0.193	0.201	0.19	0.163	0.227	0.204	0.185	0.213	0.181
NCI-H1755	0.447	0.431	0.465	0.388	0.362	0.932	0.953	0.971	0.774	0.482	0.515	0.408	0.326	0.483	0.459	0.678	0.528	0.415
NCI-H1792	1.02	0.924	0.586	0.638	0.276	0.94	0.941	0.977	1.01	0.371	0.558	0.431	0.264	0.5	0.519	0.362	0.392	0.469
NCI-H1915	0.51	0.515	0.471	0.476	0.369	1.01	0.985	0.932	0.935	0.778	0.843	0.75	0.684	0.737	0.722	0.821	0.567	0.373
NCI-H1975	0.327	0.296	0.293	0.292	0.23	0.393	0.399	0.35	0.277	0.302	0.137	0.208	0.106	0.238	0.209	0.217	0.199	0.13
NCI-H1993	0.619	0.666	0.607	0.583	0.475	1.21	1.14	0.967	0.803	0.882	0.964	0.676	0.652	0.968	1.08	0.925	0.771	0.275
NCI-H2009	1.07	1.05	1.07	1.01	0.849	1.03	1.02	0.991	0.733	1.04	1.03	0.977	0.955	1.05	0.967	0.974	0.771	0.762
NCI-H2023	0.278	0.222	0.196	0.166	0.134	1.13	1.07	0.988	0.727	0.746	0.77	0.693	0.363	0.648	0.528	0.313	0.111	0.0763
NCI-H2085	0.795	0.872	0.837	0.825	0.586	1.14	1.16	1	0.922	0.481	0.44	0.513	0.333	0.414	0.426	0.384	0.278	0.251
NCI-H2087	0.653	0.611	0.61	0.619	0.258	0.772	0.802	0.982	0.722	0.138	0.212	0.183	0.17	0.157	0.125	0.18	0.127	0.143
NCI-H2126	0.706	0.784	0.674	0.629	0.559	1.15	1.18	1.04	1.13	0.933	0.972	0.947	0.774	0.815	0.906	0.894	0.766	0.462
NCI-H2228	0.348	0.345	0.299	0.26	0.144	1.05	0.917	0.992	0.531	0.169	0.139	0.164	0.13	0.187	0.132	0.135	0.184	0.102
NCI-H2347	0.416	0.528	0.433	0.417	0.427	1.04	0.961	1.15	0.897	0.344	0.558	0.324	0.539	0.337	0.378	0.348	0.193	0.081
NCI-H2405	1.04	1.11	1.03	0.968	0.989	1.04	0.997	0.896	0.924	0.647	0.632	0.538	0.452	0.789	0.767	0.944	0.808	0.597
